From patent publication US20060234944A1, “Beta-secretase inhibitors and methods of use” (Oklahoma Medical Reseach Foundation, priority 2001, published 2006)
Blank lines part the entries; values can stand above or below the molecule they belong to. *1 amine or outer side, *2 acyl side, *3 side chain or, on linkers, in order; H or OH if unused. Where a SMILES comes first, the peptide text is derived from it. [ ]: non-standard residue; d: D form. The star is where a group is joined. LeuΨ(S-CHOHCH2)Ala = CC(C)C[C@H](N[*:1])[C@@H](O)C[C@@H](C)C(=O)[*:2]; 5FAM = O=C1OC2(c3ccc(O)cc3Oc3cc(O)ccc32)c2ccc(C(=O)*)cc21; Ahx = NCCCCCC(=O)O

Tests used:
HEK293 cells = experiment: Entry of fluorescently labelled inhibitors into cultured cells (flow cytometry); format: cell-based, human; conditions: 10 to 30 minutes incubation
Experimental: Fluorescently labelled inhibitors or fluorescein (Fs) as a control were incubated with suspended cells for time intervals ranging from 10 to 30 minutes. Cells were fixed with paraformaldehyde and permeabilized in 0.2% Tween-20 in PBS for 6 minutes and incubated with anti-fluorescein-Alexa™ 488 antibody (Molecular Probes, Eugene, Oreg.) in order to enhance detection of intracellular inhibitor present from penetration. Flow cytometry (FACSCalibur™) and confocal fluorescent microscopy (Leica TCS NT™) were performed at the Flow and Image Cytometry Lab, OUHSC.

[1] = Transport of conjugated inhibitors into mouse blood cells, splenocytes and brain after i.p. injection
Experimental: Whole blood cells (with EDTA as anti-coagulant in the syringe or in the capillary tube) were isolated from anesthetized animals from the orbital artery or by heart puncture and diluted 1:10 in PBS. Prior to the harvest of other tissue samples, animals were anesthetized and perfused with 150 ml of neutral-buffered 10% formalin. Spleens were harvested intact. Brains were harvested and cerebral hemispheres separated, one for sectioning by cryostat, the other for single cell isolation for flow cytometry.
Sections of the brain hemispheres were obtained by soaking in OCT/PBS at 4° C. for overnight, recovered and frozen in Histo Prep Media.
To collect single cell suspensions, spleens and brain hemispheres were homogenized through a 30 μm screen and directly analyzed by flow cytometric analysis.

plasma Aβ40 [2] = experiment: Inhibition of Aβ production in tg2576 transgenic mice (plasma Aβ40 ELISA); format: in vivo
Experimental: Six-month-old tg2576 mice (n=21) were injected intraperitoneally (i.p.) 200 μg of conjugate CPI-3 or with control DMSO, in 200 μl of PBS. Plasma were collected from anesthetized animals by orbital bleed or sephaneous vein into heparinized capillary tubes and clarified by centrifugation. Plasma A≢ 1-40 levels were determined by capture ELISA (BioSource International, Camarillo, Calif.). The peptide analogue of CPI-3, with an amide group instead of the hydroxyethylene isostere was synthesized by SynPep (Camarillo, Calif.).
Since the conjugate inhibitors can cross the blood brain barrier in vivo, enter cells both in vitro and in vivo, and inhibit Aβ production in vitro, inhibition of Aβ production in vivo was determined. Tg2576 mice, expressing the Swedish mutation of the human amyloid precursor protein (including SEQ ID NO: 11) (Hsiao, K., et al., Science 274:99-102 (1996), the teachings of which are incorporated hereby in their entirety) were injected with CPI-3, which is identical in amino acid sequence to CPI-2 and lacks the amino-terminal fluorescein (FAM) derivative. Blood was collected from tg2576 animals at time intervals following injection of 400 μg of CPI-3.

memapsin 2 = target: T1, memapsin 2 (Homo sapiens, UniProt P56817); experiment: Inhibition of memapsin 2 cleavage of fluorogenic substrate FS-2 (Ki, Ki apparent, Vi/Vo, % inhibition); format: biochemical; conditions: read-out: Ki for memapsin 2
T1 construct: made in house; host or cells: E. coli
T1 sequence (P56817 41-454): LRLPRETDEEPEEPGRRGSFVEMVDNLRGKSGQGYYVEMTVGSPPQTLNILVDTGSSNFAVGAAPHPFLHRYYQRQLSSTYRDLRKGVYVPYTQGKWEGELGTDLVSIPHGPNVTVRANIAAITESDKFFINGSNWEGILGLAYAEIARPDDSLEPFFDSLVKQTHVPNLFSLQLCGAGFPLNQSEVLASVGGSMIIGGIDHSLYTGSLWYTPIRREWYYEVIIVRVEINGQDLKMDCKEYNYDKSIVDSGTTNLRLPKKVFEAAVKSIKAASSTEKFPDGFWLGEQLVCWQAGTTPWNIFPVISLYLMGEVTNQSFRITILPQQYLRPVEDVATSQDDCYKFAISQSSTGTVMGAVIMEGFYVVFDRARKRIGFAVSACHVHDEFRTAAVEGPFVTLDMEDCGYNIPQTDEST
Experimental: Ki is the inhibition equilibrium constant which indicates the ability of compounds to inhibit the β-secretase activity of memapsin 2 and memapsin 1. […] The K1 value is independent of the substrate, and converted from Ki apparent.
The Vi/Vo values depicted in Table 1 were determined at conditions under which the enzyme and inhibitor concentrations were equal (e.g., about 80 nM, 100 nM).
(§1) The relationship of Ki (independent of substrate concentration) to Kiapp is a function of substrate concentration in the assay and the Km for cleavage of the substrate by either memapsin 1 or memapsin 2 by the relationship: Kiapp=Ki(1+[S]/Km).
Ki is the inhibition equilibrium constant which indicates the ability of compounds to inhibit the β-secretase activity of memapsin 2 and memapsin 1. […] The Ki value is independent of the substrate, and converted from Ki apparent.
(§2) An aliquot of the inhibitor of known concentration in DMSO was diluted into 1.8 ml 0.1 M NaOAc, pH 4.0. DMSO and added to a final concentration of 10% (v/v), and memapsin 2 (final concentration of 80 nM), followed by a 20 minute equilibration at 37° C. Compounds were evaluated for the ability to inhibit memapsin 1 and memapsin 2 at concentrations between about 10 nM and about 10 μm of inhibitor.
(§3) The relationship of Ki (independent of substrate concentration) to Kiapp is a function of substrate concentration in the assay and the Km for cleavage of the substrate by either memapsin 1 or memapsin 2 by the relationship: Kiapp=Ki (1+[S]/Km).

plasma Aβ40 [3] = experiment: Inhibition of Aβ production in APP/F transgenic mouse model of Alzheimer's disease (plasma Aβ40 sandwich ELISA); format: in vivo, mice; conditions: control inhibitor, 163 nmoles i.p., 2 hours following injection
Experimental: Compounds MMI-138, MMI-165, and MMI-185 were synthesized as described above. Compounds were dissolved in 1 ml of dimethyl sulfoxide (DMSO) to a final concentration of about 1 mg/ml for MMI-165 and MMI-185, and about 10 mg/ml for MMI-138. […] Inhibitors were diluted into PBS or H2O immediately prior to injection, as described below. Inhibition constants were determined by methods described by Ermolieff, et al (Biochem. 39:12450-12456 (2000), the teachings of which are incorporated hereby in their entirety).
The tg2576 strain of mice was obtained from Taconic (Germantown, N.Y.). The APP/F strain of mice were obtained by mating the tg2576 mice with the FVB/N strain. To determine presence of the Swedish APP gene in APP/F mice, the DNA from mice was isolated according to the Qiagen Dneasy™ Tissue Kit. PCR (Qiagen kit and protocol) was used to amplify the fragment of DNA corresponding to the human Swedish APP gene. The following primers were used: […]
At the age of three months, animals of the Alzheimer's disease mouse model APP/F were injected intraperitoneally (i.p.) with about 163 nanomoles of either compounds MMI-138 (molecular weight 674 g/mole; 110 μg per animal, n=2), MMI-165 (molecular weight 626 g/mole; 102 μg per animal, n—2), or MMI-185 (molecular weight 686; 112 μg per animal, n—2).
Heparinized capillary tubes collected blood samples from anesthetized animals from either the retro-orbital sinus or from the saphenous vein at specified intervals following injection. The blood samples were transferred to sterile 1.5 mL microcentrifuge tubes, centrifuged at 5,100 RPM for 10 minutes to recover the plasma (supernatant), and stored at −70° C. until analysis for the Aβ40 by Enzyme Linked-Immuno-Sorbent Assay (ELISA).
A sandwich ELISA (BioSource International, Camarillo, Calif.) was used to determine the levels of Aβ40 in plasma samples. The ELISA utilizes a primary antibody specific for human Aβ for the immobilization of the amino-terminus and a detection antibody specific for the carboxy-terminal amino acids of Aβ40. A conjugated secondary antibody was used to detect the ternary complex, using a stabilized chromogen substrate, quantifiable following addition of 1 M HCl, with the optical densities measured at 450 nm. The procedures were followed according to the BioSource protocol. Optical densities were converted to pg/ml quantities of Aβ40 using a linear regression of the optical densities of standards obtained from the commercial kit, to their known concentrations.

memapsin 1 = target: T2, memapsin 1 (Homo sapiens, UniProt Q9Y5Z0); experiment: Inhibition of memapsin 1 cleavage of fluorogenic substrate FS-2 (Ki apparent, % inhibition); format: biochemical; conditions: Table 9; read-out: Ki apparent (nM) Mep1
T2 construct: made in house; host or cells: E. coli
T2 sequence (Q9Y5Z0 63-466): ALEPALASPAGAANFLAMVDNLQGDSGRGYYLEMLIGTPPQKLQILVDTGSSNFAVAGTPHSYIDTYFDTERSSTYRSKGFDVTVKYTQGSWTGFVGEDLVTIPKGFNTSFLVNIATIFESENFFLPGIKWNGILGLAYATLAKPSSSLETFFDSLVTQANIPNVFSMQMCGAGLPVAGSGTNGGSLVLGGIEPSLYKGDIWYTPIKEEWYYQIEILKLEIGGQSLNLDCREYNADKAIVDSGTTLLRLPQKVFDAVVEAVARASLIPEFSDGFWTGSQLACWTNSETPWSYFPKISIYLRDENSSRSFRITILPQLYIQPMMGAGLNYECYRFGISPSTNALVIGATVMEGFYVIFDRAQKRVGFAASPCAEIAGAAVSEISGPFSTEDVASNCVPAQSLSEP
Experimental: Vi/Vo depicts the ratio of initial cleavage velocities of the substrate FS-2 (Ermolieff, et al., Biochemistry […]:12450-12456 (2000)) by memapsin 1 or memapsin 2 in the absence (Vo) or presence (Vi) of a compound of the invention. […] The Vi/Vo values depicted in Table 1 were determined at conditions under which the enzyme and inhibitor concentrations were equal (e.g., about 80 nM, 100 nM).
as §1, §2, §3

plasma Aβ40 [4] = experiment: Inhibition of Aβ production in APP/F transgenic mouse model of Alzheimer's disease (plasma Aβ40 sandwich ELISA); format: in vivo, mice; conditions: unconjugated inhibitor, MW 935 g/mole
[5] = Martin et al., Aids 13:1227-32 (1999); cited from earlier work
[6] = four injections at 2 hour intervals

Structure (SMILES): CC(C)C[C@H](NC(=O)[C@H](CC(N)=O)NC(=O)[C@@H](NC(=O)[C@H](CCC(=O)O)NC(=O)CCCCCNC(=O)c1ccc2c(c1)C(=O)OC21c2ccc(O)cc2Oc2cc(O)ccc21)C(C)C)[C@@H](O)C[C@@H](C)C(=O)N[C@@H](C)C(=O)N[C@@H](CCC(=O)O)C(=O)N[C@@H](Cc1ccccc1)C(=O)NCC(=O)N[C@@H](Cc1ccc(O)cc1)C(=O)NCC(=O)N[C@@H](CCCNC(=N)N)C(=O)N[C@@H](CCCCN)C(=O)N[C@@H](CCCCN)C(=O)N[C@@H](CCCNC(=N)N)C(=O)N[C@@H](CCCNC(=N)N)C(=O)N[C@@H](CCC(N)=O)C(=O)N[C@@H](CCCNC(=N)N)C(=O)N[C@@H](CCCNC(=N)N)C(=O)N[C@@H](CCCNC(=N)N)C(=O)O [CPI-1] ({5FAM-Ahx}-EVN[LeuΨ(S-CHOHCH2)Ala]AEFGYGRKKRRQRRR-OH)
Penetration of cultured cells (intracellular fluorescence) (HEK293 cells): readily penetrated cultured cells within minutes
Uptake into brain (fluorescence) ([1]; 8 hours after i.p. injection, flow cytometry or confocal microscopy of brain sections): penetration of the fluorescent conjugate into all brain cells
Blood cells with strong fluorescence signal ([1]; whole blood 20 minutes after i.p. injection of 0.3 nmol): approximately 100%

Structure (SMILES): CC(C)C[C@H](NC(=O)[C@H](CCC(=O)O)NC(=O)CCCCCNC(=O)c1ccc2c(c1)C(=O)OC21c2ccc(O)cc2Oc2cc(O)ccc21)C(=O)N[C@@H](CC(=O)O)C(=O)N[C@@H](CC(C)C)[C@@H](O)C[C@@H](C)C(=O)N[C@H](C(=O)N[C@@H](CCC(=O)O)C(=O)N[C@@H](Cc1ccccc1)C(=O)NCC(=O)NCC(=O)N[C@H](CCCNC(=N)N)C(=O)N[C@H](CCCNC(=N)N)C(=O)N[C@H](CCCNC(=N)N)C(=O)N[C@H](CCCNC(=N)N)C(=O)N[C@H](CCCNC(=N)N)C(=O)N[C@H](CCCNC(=N)N)C(=O)N[C@H](CCCNC(=N)N)C(=O)N[C@H](CCCNC(=N)N)C(=O)N[C@H](CCCNC(=N)N)C(=O)O)C(C)C [CPI-2] ({5FAM-Ahx}-ELD[LeuΨ(S-CHOHCH2)Ala]VEFGG[dR][dR][dR][dR][dR][dR][dR][dR][dR]-OH)
Penetration of cultured cells (intracellular fluorescence) (HEK293 cells): readily penetrated cultured cells within minutes

Ki (memapsin 2): 35 nM
Structure (SMILES): CC(C)C[C@H](NC(=O)[C@@H](N)CCC(=O)O)C(=O)N[C@@H](CC(=O)O)C(=O)N[C@@H](CC(C)C)[C@@H](O)C[C@@H](C)C(=O)N[C@H](C(=O)N[C@@H](CCC(=O)O)C(=O)N[C@@H](Cc1ccccc1)C(=O)NCC(=O)NCC(=O)N[C@H](CCCNC(=N)N)C(=O)N[C@H](CCCNC(=N)N)C(=O)N[C@H](CCCNC(=N)N)C(=O)N[C@H](CCCNC(=N)N)C(=O)N[C@H](CCCNC(=N)N)C(=O)N[C@H](CCCNC(=N)N)C(=O)N[C@H](CCCNC(=N)N)C(=O)N[C@H](CCCNC(=N)N)C(=O)N[C@H](CCCNC(=N)N)C(=O)O)C(C)C [CPI-3] (H-ELD[LeuΨ(S-CHOHCH2)Ala]VEFGG[dR][dR][dR][dR][dR][dR][dR][dR][dR]-OH; N-terminus and C-terminus assumed)
Plasma Aβ40 level relative to initial value (plasma Aβ40 [2]; 2 hours following i.p. injection): about one third
Aβ level, average low as % of the average initial value (plasma Aβ40 [2]; [6]): 29%
Inhibition of plasma Aβ (plasma Aβ40 [2]; [6]): about 80%
Plasma Aβ40 relative to PBS control two hours following injection (plasma Aβ40 [2]; i.p., various doses): significant dose-dependent reduction
Time of return of plasma Aβ40 to the initial value (plasma Aβ40 [2]; single i.p. injection): ≤ 8 h

Structure (SMILES): CC(C)C[C@H](NC(=O)[C@@H](N)CCC(=O)O)C(=O)N[C@@H](CC(=O)O)C(=O)N[C@@H](CC(C)C)[C@@H](O)C[C@@H](C)C(=O)N[C@H](C(=O)N[C@@H](CCC(=O)O)C(=O)N[C@@H](Cc1ccccc1)C(=O)O)C(C)C [OM00-3, ELDL*AVEF] (H-ELD[LeuΨ(S-CHOHCH2)Ala]VEF-OH; N-terminus assumed)
Effect on plasma Aβ40 levels (plasma Aβ40 [2]; i.p. injection (FIG. 21C)): did not reduce plasma Aβ40 levels
Decrease of plasma Aβ40 (plasma Aβ40 [3]): 16%
Ki (memapsin 1): 0.18 nM
Inhibition of Aβ40 production in vivo (plasma Aβ40 [4]): failed to inhibit Aβ40 production

Structure (SMILES): CC(C)(C)NC(=O)[C@@H]1CN(Cc2cccnc2)CCN1C[C@@H](O)C[C@@H](Cc1ccccc1)C(=O)N[C@H]1c2ccccc2C[C@H]1O [indinavir]
Crossing of the blood-brain barrier [5]: can cross the blood-brain barrier
